According to paper PMC8617627, “Novel DYRK1A Inhibitor Rescues Learning and Memory Deficits in a Mouse Model of Down Syndrome” (Pharmaceuticals, 2021):
Read-outs that look alike come from different tables or passages of the source.

Experiments:
Assay in all cases: Kinase profile (33P ATP filter binding)
Assay type in all cases: biochemical
Conditions in all cases: read-out: Remaining protein kinase activity
EPH-B4 = target: T1, EPH-B4 (Homo sapiens, UniProt P54760)
T1 sequence (P54760 16-987): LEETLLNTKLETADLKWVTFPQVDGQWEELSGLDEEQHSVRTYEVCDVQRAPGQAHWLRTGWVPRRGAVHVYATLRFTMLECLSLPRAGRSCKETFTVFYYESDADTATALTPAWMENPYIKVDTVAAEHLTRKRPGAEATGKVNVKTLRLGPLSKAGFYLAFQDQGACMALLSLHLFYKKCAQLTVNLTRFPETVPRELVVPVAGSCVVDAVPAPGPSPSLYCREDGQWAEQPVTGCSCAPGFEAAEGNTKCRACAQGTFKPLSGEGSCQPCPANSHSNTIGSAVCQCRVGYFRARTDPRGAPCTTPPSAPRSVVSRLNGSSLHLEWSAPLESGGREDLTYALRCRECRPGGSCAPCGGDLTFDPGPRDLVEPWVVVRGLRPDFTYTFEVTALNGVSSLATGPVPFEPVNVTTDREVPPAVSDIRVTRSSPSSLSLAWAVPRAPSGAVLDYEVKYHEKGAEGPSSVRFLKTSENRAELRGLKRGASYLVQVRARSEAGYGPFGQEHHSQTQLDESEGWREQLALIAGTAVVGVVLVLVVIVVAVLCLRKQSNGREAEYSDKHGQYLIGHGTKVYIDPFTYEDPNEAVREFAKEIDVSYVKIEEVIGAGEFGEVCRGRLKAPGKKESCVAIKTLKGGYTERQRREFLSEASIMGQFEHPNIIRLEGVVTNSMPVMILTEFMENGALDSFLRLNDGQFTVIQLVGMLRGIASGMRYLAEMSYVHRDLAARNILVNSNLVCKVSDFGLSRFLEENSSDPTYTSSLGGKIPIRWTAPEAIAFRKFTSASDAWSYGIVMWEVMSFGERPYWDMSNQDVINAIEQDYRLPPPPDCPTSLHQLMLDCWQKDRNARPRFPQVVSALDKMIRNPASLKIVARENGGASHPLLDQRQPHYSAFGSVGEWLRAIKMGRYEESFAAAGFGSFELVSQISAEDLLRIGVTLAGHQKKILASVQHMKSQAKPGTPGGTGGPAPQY

ERK2 = ERK2 (Homo sapiens, UniProt P28482)
IKKe = target: T2, IKKe (Homo sapiens, UniProt Q14164)
T2 sequence (Q14164 1-716): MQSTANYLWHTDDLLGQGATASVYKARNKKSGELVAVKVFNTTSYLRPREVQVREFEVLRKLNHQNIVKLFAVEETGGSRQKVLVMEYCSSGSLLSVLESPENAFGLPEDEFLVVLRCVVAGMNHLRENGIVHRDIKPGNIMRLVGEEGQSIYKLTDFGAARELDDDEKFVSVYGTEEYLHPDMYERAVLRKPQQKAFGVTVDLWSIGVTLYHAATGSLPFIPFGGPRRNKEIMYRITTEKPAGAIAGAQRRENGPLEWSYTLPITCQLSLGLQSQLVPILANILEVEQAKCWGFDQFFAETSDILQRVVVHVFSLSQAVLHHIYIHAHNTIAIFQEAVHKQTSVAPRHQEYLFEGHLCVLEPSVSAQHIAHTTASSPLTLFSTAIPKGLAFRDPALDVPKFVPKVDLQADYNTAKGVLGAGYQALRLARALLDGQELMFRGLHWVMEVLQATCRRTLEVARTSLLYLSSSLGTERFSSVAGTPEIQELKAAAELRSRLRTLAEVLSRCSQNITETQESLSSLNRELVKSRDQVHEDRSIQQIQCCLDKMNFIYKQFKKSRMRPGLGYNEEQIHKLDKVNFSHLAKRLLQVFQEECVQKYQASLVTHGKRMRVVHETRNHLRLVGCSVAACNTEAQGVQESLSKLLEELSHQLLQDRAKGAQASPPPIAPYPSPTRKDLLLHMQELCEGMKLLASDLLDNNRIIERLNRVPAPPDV

IRAK1 = IRAK1 (Homo sapiens, UniProt P51617)
p38g MAPK = target: T3, p38g MAPK (Homo sapiens, UniProt P53778)
T3 sequence (P53778 1-367): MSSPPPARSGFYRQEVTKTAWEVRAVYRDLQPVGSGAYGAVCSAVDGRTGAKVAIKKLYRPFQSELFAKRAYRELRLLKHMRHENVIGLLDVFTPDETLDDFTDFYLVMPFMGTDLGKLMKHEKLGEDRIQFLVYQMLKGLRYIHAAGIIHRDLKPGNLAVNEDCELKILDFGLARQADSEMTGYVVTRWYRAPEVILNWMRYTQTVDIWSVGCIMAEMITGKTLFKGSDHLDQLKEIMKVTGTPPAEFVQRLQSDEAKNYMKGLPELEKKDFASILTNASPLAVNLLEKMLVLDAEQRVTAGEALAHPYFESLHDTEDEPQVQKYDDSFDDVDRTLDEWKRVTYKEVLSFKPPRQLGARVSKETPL

Sequence of ERK2 (P28482 whole entry, species assumed): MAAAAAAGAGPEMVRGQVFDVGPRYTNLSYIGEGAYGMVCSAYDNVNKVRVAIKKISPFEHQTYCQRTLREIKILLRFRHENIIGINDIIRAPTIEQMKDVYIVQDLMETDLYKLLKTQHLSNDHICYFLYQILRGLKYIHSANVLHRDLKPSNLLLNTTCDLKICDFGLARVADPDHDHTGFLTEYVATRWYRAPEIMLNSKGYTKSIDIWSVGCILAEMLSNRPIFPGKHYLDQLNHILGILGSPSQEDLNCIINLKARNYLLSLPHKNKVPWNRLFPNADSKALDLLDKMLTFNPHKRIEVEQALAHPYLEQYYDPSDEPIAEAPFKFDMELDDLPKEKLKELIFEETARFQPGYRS
Sequence of IRAK1 (P51617 whole entry): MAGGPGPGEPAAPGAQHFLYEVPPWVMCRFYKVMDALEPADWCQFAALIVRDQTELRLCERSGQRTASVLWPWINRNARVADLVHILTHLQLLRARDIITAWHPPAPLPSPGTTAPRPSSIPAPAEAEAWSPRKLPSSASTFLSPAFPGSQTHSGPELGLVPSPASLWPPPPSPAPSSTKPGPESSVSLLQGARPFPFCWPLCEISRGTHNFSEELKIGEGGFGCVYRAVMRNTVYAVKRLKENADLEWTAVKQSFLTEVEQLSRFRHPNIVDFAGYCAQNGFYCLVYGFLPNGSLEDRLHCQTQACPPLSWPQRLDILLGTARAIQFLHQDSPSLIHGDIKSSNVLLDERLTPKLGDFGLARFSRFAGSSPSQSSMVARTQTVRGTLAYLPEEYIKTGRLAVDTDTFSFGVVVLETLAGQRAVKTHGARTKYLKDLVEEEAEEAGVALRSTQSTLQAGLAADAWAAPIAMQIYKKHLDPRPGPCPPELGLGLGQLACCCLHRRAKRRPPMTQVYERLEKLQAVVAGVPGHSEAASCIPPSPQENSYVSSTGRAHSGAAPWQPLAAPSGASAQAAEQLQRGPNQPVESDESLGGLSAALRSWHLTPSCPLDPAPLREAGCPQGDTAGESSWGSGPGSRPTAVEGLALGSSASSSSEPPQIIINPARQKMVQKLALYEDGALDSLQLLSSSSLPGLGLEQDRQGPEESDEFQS

| SMILES | remaining activity at 100 µM (EPH-B4) | remaining activity at 1 µM (ERK2) | remaining activity at 100 µM (ERK2) | remaining activity at 1 µM (IKKe) | remaining activity at 100 µM (IKKe) | remaining activity at 1 µM (IRAK1) | remaining activity at 100 µM (IRAK1) | remaining activity at 1 µM (p38g MAPK) | remaining activity at 100 µM (p38g MAPK) | remaining activity at 1 µM (EPH-B4; EPH-B4, 1 μM) | remaining activity at 100 µM (EPH-B4; EPH-B4, 100 μM) | remaining activity at 1 µM (ERK2; ERK2, 1 μM) | remaining activity at 100 µM (ERK2; ERK2, 100 μM) | remaining activity at 1 µM (IKKe; IKKe, 1 μM) | remaining activity at 100 µM (IKKe; IKKe, 100 μM) | remaining activity at 1 µM (IRAK1; IRAK1, 1 μM) | remaining activity at 100 µM (IRAK1; IRAK1, 100 μM) | remaining activity at 1 µM (p38g MAPK; p38g MAPK, 1 μM) | remaining activity at 100 µM (p38g MAPK; p38g MAPK, 100 μM) |
| --- | --- | --- | --- | --- | --- | --- | --- | --- | --- | --- | --- | --- | --- | --- | --- | --- | --- | --- | --- |
| COc1ccc2sc(-c3cncc(NC(C)=O)c3)nc2c1 [PST-001, N-(5-(5-Methoxybenzo[d]thiazol-2-yl)pyridin-3-yl)acetamide] | 130% | 115% | 112% | 105% | 122% | 103% | 93% | 125% | 105% | – | – | – | – | – | – | – | – | – | – |
| COc1ccc2sc(-c3cncc(N)c3)nc2c1 [compound 1, 5-(5-Methoxybenzo[d]thiazol-2-yl)pyridin-3-amine] | – | – | – | – | – | – | – | – | – | 112% | 97% | 102% | 96% | 110% | 55% | 95% | 24% | 110% | 37% |
